Several values for one entry are separate records, joined by “and”; a condition that tells them apart may be missing. Identical values can stand only once. Like-named read-outs stand apart in the source and are kept apart here.
Experiments:
[1] = Plasma concentrations of phenserine and its metabolites in human plasma; type: in vivo; details: both sexes, in vivo; for concentration at 1 h: Hour 1; for concentration at 2 h: Hour 2; for concentration at 3 h: Hour 3; for concentration at 4 h: Hour 4
Description: The relationship between pharmacokinetic and pharmacodynamics evaluated in FIG. 15 was evaluated in aged volunteers. A total of 32 subjects (60-80 years of age, 11 males/21 females) were screened and enrolled. All participants provided informed consent, the conduct of the study were approved and overseen by the local Review IRB.
For pharmacokinetic (blood concentrations of primary drug and select metabolites) a dose […] additionally was evaluated.
These were centrifuged within 15 min of collection, and stored in a freezer at −70° C. freezer in marked polypropylene tubes until analysis. Phenserine levels were quantified by liquid chromatography/mass spectrometry (LC/MS/MS). In brief, analyses were undertaken on Perkin-Elmer (PE, Norwalk, USA) high performance liquid chromatographic (HPLC) instrumentation. Compound separation was performed on a Phenomenex LUNA C18 column (5 μM, 2.0 mm×150 mm; Torrance, USA), with a Phenomenex guard column (2 mm×30 mm). The mobile phase was 60% acetonitrile (HPLC grade) plus 40% ammonium acetate (v/v) with a flow rate of 0.4 mL/min. […] Thereafter, 2 mL of tert-butyl methyl ether was added and the sample was mixed and flash frozen. The organic layer was decanted, dried under a stream of nitrogen and reconstituted into 250 μL of mobile phase. Of this, a 60 μL sample was then injected into the HPLC.

[2] = Plasma concentrations of phenserine and its metabolites in beagle dog plasma; type: in vivo; details: beagle, in vivo; for concentration at 1 h: Hour 1; for concentration at 2 h: Hour 2; for concentration at 3 h: Hour 3; for concentration at 4 h: Hour 4
[3] = Plasma concentrations of phenserine and its metabolites in wistar rat plasma; details: in vivo; for concentration at 1 h: Hour 1; for concentration at 2 h: Hour 2
clinical = details: for t1/2 /Elim / Estimated Brain CMax: 15 mg immediate release dose; for Estimated Brain CMax: from plasma CMax and brain:plasma partitioning; for Cmax: human, in vivo, 15 mg
Description: FIGS. 33-34 depict two graphs from an Excel spreadsheet. FIG. 33 is a linear plot of plasma level vs time and FIG. 34 is a semi-log plot of plasma conc. vs time.

[4] = Estimated EC50/IC50 of phenserine and metabolites for pharmacological activity in brain
[5] = in vivo
SH-SY5Y neuronal cells = assay: Phenserine plus anti-inflammatory drug, oxidative stress and trophic effects in SH-SY5Y cells (MTS assay)
Description: Human SH-SY5Y neuronal cells were seeded in 96-well plates at a density of 1×10^5 cells per well and allowed to grow for 24 hr. […] […] At 18 hr thereafter a MTS assay was performed per the manufacturers protocol (Abcam, Cambridge, Mass.) to measure cell viability.
For example, instead of aspirin (as shown in FIG. 3A), an NSAID, naproxen, was used under the same experimental conditions at concentrations in FIGS. 3B-3D.

SH-SY5Y cells = assay: Cell proliferation of SH-SY5Y cells (MTS assay); type: cell-based, human; details: 30 uM, 24 hr
Description: SHSYSY cells were exposed for 24 hr to 30 uM concentration of (−)- and (+)-phenserine. After 24 hr cell proliferation was determined by MTS assay. *P,0.05, **p,0.01, and ***p,0.001 compared to control samples without drug.

Compound	concentration at 1 h [1]	concentration at 2 h [1]	concentration at 3 h [1]	concentration at 4 h [1]	concentration at 1 h [2]	concentration at 2 h [2]	concentration at 3 h [2]	concentration at 4 h [2]	concentration at 1 h [3]	concentration at 2 h [3]	t1/2 /Elim (clinical)	Estimated Brain CMax (clinical)	Cmax (clinical)	Estimated EC50 [4]	brain:blood partition [5]	further results
CN1c2ccc(OC(=O)Nc3ccccc3)cc2[C@]2(C)CCN[C@H]12 [N1-nor-phenserine, (−)-N1-norphenylcarbamoyleseroline]	1.56 ng/mL	1.19 ng/mL	0.8 ng/mL	0.53 ng/mL	86.1 ng/mL	50.3 ng/mL	86.7 ng/mL	41.9 ng/mL	37.6 ng/mL	26.2 ng/mL	1.90 to 1.96 h	2.15 ng/ml and 6.6 nM	1.56 ng/mL and 4.8 nM	24-100 NanoMolar	approx. 4:1	expected plasma levels (clinical; targeted 30 mg/d or 60 mg/d in sustained release formulation): > 1.0 ng/mL
CC(=O)Oc1ccccc1C(=O)O [ASA, acetylsalicylic acid, reference compound]	–	–	–	–	–	–	–	–	–	–	–	–	–	–	–	oxidative stress-induced cellular death (cell viability) (SH-SY5Y neuronal cells; ASA 10^−5 M, (−)-Phen 10^−7 M, 10^−6 M, H2O2 50 μM, 18 hr): no activity
CN1CC[C@@]2(C)c3cc(OC(=O)Nc4ccccc4)ccc3N[C@@H]12 [N8-nor-phensereine, (−)-N8-norphenylcarbamoyleseroline]	11.2 ng/mL	7.38 ng/mL	4.28 ng/mL	3.61 ng/mL	33.4 ng/mL	28.2 ng/mL	9.06 ng/mL	7.88 ng/mL	96.4 ng/mL	69.2 ng/mL	1.51 to 1.76 h	17.7 ng/ml and 52.9 nM	11.2 ng/mL and 34.8 nM	24-100 NanoMolar	approx. 6:1	–
C[C@@]12CCN[C@@H]1Nc1ccc(OC(=O)Nc3ccccc3)cc12 [N1,N8-bisnor-phenserine, (−)-N1, N8-bisnorphenylcarbamoyleseroline]	22.5 ng/mL	14.5 ng/mL	7.62 ng/mL	6.55 ng/mL	235 ng/mL	220 ng/mL	428 ng/mL	351 ng/mL	536 ng/mL	539 ng/mL	0.53 to 1.29 h	–	22.5 ng/mL and 73.3 nM	100 NanoMolar	approx. 1.3:1	Estimated Brain CMax (clinical; listed as N-1, N-8 BisNor P): 28.8 ng/ml and 95.0 nM; IC50 ([4]; BNPCE IC50+/−25, read-out: IC50 (estimated)): 22 nM; IC50 ([4]; pharmacological activity in brain, read-out: estimated IC50): 100 nM
CN1CC[C@]2(C)c3cc(OC(=O)Nc4ccccc4)ccc3N(C)[C@H]12 [(+)-phenserine, reference compound]	–	–	–	–	–	–	–	–	–	–	–	–	–	–	–	cell proliferation (neurotrophic actions) (SH-SY5Y cells): increasing cellular proliferation
COc1ccc2cc([C@H](C)C(=O)O)ccc2c1 [naproxen, reference compound]	–	–	–	–	–	–	–	–	–	–	–	–	–	–	–	tolerability by SH-SY5Y neuronal cells (SH-SY5Y neuronal cells; 10 nM to 100,000 nM): well tolerated; trophic actions (SH-SY5Y neuronal cells; 10 nM to 100,000 nM): does not show activity

Reference: patent US10864192B2, “Compositions and methods for inhibiting brain trauma-induced neurodegeneration and related conditions” (priority 2016, dated 2020)
